# Experimental data reported in patent publication US10478501B2, “Method of treating disorders using a pharmaceutical composition of oligopeptides” (Merck Patent GmbH, priority 2011, dated 2019).
# Experiments:
# [1] = test system: H1299; experiment: Cellular radiosensitivity by clonogenic cell survival assay, H1299; type: cell-based, human; details: combined with γ-radiation, given 1 h before and continued 23 h after irradiation
# Method: (§1) Methods: Three non-small cell lung carcinoma lines (NSCLCs) (H460, A549 and H1299) and three head and neck squamous cell carcinoma lines (HNSCCs) (FaDu, SCC-15 and SCC-25) cell lines were used for in vitro experiments. Of these, H460 and FaDu were used for in vivo testing when grown as xenografts in nude mice. The effects of cilengitide (1-50 μg/ml, 24 h) on in vitro cell viability was determined by MTS assay and on cellular radiosensitivity by clonogenic cell survival assay after exposing the cells to graded single doses of γ-radiation with or without cilengitide (given 1 h before and continued for 23 h after irradiation). In vivo effect of cilengitide on radioresponse of xenografts was assessed by tumor growth delay. When tumor xenografts reached 7 mm in diameter cilengitide treatment (30 or 60 mg/d/5 or 10 days) was initiated followed by a single dose of 15 Gy local radiation (using ^137Cs γ-ray source), when the tumors reached 8 mm.
# [2] = test system: BT474 human breast cancer cells; experiment: Her2+ breast cancer model BT474, Cilengitide in combination with Herceptin; type: in vivo, Balbc nu/nu mice; details: 300 mg/kg Cilengitide s.c. daily
# Description: BT474 human breast cancer cells were subcutaneously injected into Balbc nu/nu mice. The mice were randomized into different treatment groups when the tumors reached a mean tumor volume of approximately 125 mm^3.
# [3] = test system: MDA-MB468 human breast tumour cells; experiment: Study 007: MDA-MB-468 primary tumor growth; type: in vivo, female BALB/c nu/nu mice; details: all three dosing groups (75, 150 or 300 mg/kg) daily s.c., composition according to Example 18; Vehicle Control higher than 350 mm^3
# Method: MDA-MB468 human breast tumour cells were orthotopically inoculated into the third mammary fat pad of female BALB/c nu/nu mice. The mice were randomised into groups when the tumors reached a size of approximately 40 mm^3.
# The mice in each group received treatment with either Vehicle Control (Placebo) or EMD 121974 (75, 150 or 300 mg/kg as a Composition according to Example 18) by daily subcutaneous injection. Body weight and tumour volume measurements were made for all mice three times per week.
# [4] = cited from earlier work
# [5] = test system: 4T1 mouse breast tumour cells; experiment: Study 003: 4T1 orthotopic model (lung and liver metastases); type: in vivo, female BALB/c mice
# Method: 4T1 mouse breast tumour cells were orthotopically inoculated into the third mammary fat pad of female BALB/c mice. The mice were randomised into groups when the tumors reached a size of approximately 40 mm^3.
# The mice in each group received treatment with either Vehicle Control (Placebo), EMD 121974 (75, 150 or 300 mg/kg as Composition according to Example 18) or Taxol® (8 mg/kg). The Vehicle Control and EMD 121974 were administered by subcutaneous injection, daily; Taxol® was administered by intravenous injection three times per week.
# Body weight and tumour volume measurements were made for all mice three times per week. The lungs and liver were excised from all mice at termination. For lung metastasis assessment surface metastases of the lungs were counted and for liver metastasis assessment H&E-stained sections of liver were assessed for the presence and number of micro-metastases.
# [6] = test system: FaDu (HNSCC) tumor xenografts; experiment: Tumor growth delay of FaDu xenografts with radiation; type: in vivo, nude mice
# Method: as §1
smiles,measurement,setting,value
"CC(C)[C@H]1C(=O)N[C@@H](CCCN=C(N)N)C(=O)NCC(=O)N[C@@H](CC(=O)O)C(=O)N[C@H](Cc2ccccc2)C(=O)N1C [Cilengitide, cyclo-(Arg-Gly-Asp-DPhe-NMeVal)]",radiosensitivity enhancement factor,[1],1.3
same,tumor growth of Her2+ BT474 tumors under monotherapy,[2],did not inhibit the tumor growth
same,tumour volume on day 60,[3],below 200 mm^3
same,MTD in humans,[4],no known MTD
same,spontaneous liver metastasis formation,"[5]; 75, 150 or 300 mg/kg daily s.c. as Composition according to Example 18, significant for all doses",inhibited spontaneous liver metastasis formation comparable to Taxol
same,spontaneous lung metastasis formation,"[5]; daily s.c. as Composition according to Example 18, significant for 300 mg/kg/day",spontaneous lung metastasis formation comparable to Taxol
same,enhancement factor of tumor radioresponse (tumor growth delay),[6]; with single dose of 15 Gy local radiation,2.0
same,antitumor activity as a single agent (tumor growth delay),[6]; without radiation,no antitumor activity
